Results on five compounds are retold here after paper PMC9243172 (Heliyon, 2022).

Structures are written as SMILES.

The AUC is the area under the concentration-time curve, a measure of exposure. For orientation: clearance means the rate of elimination divided by the concentration. High values mean a high capacity for elimination, low ones a low capacity for elimination. A word on the Cmax: it is the maximum level reached in the sampled fluid or tissue. The term MRT denotes the average time that molecules of a dose stay in the body. One may read the half-life as how long it takes for the measured level to halve. Read a high half-life as slow decline. The Tmax is the time at which the peak concentration occurs. The term IC50 denotes the concentration needed to halve the response being measured. A lower IC50 goes with inhibition by little substance. As a reminder, the AUC(0-t) is exposure summed from dosing to a finite time, without extrapolation to infinity. Read a low AUC(0-t) as low exposure. A word on the Papp A→B: it is the apparent permeability from the apical to the basolateral side of a cell layer. The term Papp B→A denotes the apparent permeability from the basolateral to the apical side of a cell layer. As usually defined, the efflux ratio is a quotient of directional permeabilities that is used to spot active efflux.

Data set [1] in a line: Pharmacokinetic interaction of Triphala extract with midazolam in rats. The settings on record: for k el: Kel; for half-life: T1/2, rats.
A further data set concerns the target CYP3A4 (Homo sapiens, UniProt P08684). Kind of data set: Inhibition of CYP3A4. In kind it is biochemical.
The target of the next data set is CYP2D6 (Homo sapiens, UniProt P10635). Kind of data set: Inhibition of CYP2D6. It is filed as biochemical.
Sequence of CYP2D6 (P10635 whole entry): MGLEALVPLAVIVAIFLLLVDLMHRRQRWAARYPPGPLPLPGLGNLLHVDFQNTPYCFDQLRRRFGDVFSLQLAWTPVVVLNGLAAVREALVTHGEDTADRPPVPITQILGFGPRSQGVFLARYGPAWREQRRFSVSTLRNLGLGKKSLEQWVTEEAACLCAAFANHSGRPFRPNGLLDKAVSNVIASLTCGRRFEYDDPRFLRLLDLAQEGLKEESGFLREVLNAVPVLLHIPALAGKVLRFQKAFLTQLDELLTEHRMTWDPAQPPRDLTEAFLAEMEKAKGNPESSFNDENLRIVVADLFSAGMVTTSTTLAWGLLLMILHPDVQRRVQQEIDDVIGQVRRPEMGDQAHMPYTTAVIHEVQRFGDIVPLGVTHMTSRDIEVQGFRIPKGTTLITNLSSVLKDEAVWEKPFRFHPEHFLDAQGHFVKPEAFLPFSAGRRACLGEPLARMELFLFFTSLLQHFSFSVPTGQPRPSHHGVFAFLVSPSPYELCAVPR
The next data set addresses T1, CYP1A2 (Homo sapiens, UniProt P05177).
T1 sequence (P05177 1-516): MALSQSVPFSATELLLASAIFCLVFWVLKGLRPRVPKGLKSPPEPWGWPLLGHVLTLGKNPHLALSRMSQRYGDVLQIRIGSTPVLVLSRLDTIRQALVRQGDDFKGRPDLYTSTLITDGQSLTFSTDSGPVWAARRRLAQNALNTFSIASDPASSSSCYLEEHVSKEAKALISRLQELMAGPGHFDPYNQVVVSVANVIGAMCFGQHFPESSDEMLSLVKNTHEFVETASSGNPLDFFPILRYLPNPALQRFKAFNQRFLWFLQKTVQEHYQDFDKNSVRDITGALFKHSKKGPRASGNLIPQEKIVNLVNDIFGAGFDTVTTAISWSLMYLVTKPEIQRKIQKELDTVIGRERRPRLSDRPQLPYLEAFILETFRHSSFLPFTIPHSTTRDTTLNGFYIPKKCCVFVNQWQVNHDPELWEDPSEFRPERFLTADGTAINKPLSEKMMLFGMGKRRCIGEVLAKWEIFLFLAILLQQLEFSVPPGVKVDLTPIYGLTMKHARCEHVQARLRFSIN
In words: Inhibition of CYP1A2. It is filed as biochemical.

A further data set concerns the target CYP2C9 (Homo sapiens, UniProt P11712). In words: Inhibition of CYP2C9.
A short description of data set [2]: Pharmacokinetic interaction of Triphala extract with phenacetin in rats. The settings on record: for k el: Kel; for half-life: T1/2, rats.
Another data set concerns the target P-gp (Homo sapiens, UniProt P08183). In words: Rhodamine-123 permeability across Caco-2 cell monolayers. The settings on record: Caco-2, pH 7.4.
Where [3] appears, read: male, Wistar, rat, plasma, iv, 5 mg/kg, rats, midazolam 5 mg/kg iv, control (midazolam alone).
[4] abbreviates: male, Wistar, rat, plasma, po, 20 mg/kg, rats, midazolam 20 mg/kg oral, control (midazolam alone).
Setting [5] is: rats, midazolam 20 mg/kg oral, control (midazolam alone).
The mark [6] stands for this setting: rats, oral co-administration of Triphala 500 mg/kg, vs control.
Setting [7] is: male, Wistar, rat, plasma, iv, 5 mg/kg, rats, phenacetin 5 mg/kg iv, control (phenacetin alone).
Setting [8] is: male, Wistar, rat, plasma, po, 30 mg/kg, rats, phenacetin 30 mg/kg oral, control (phenacetin alone).
The mark [9] stands for this setting: rats, phenacetin 30 mg/kg oral, control (phenacetin alone).

Sequence of P-gp (P08183 whole entry): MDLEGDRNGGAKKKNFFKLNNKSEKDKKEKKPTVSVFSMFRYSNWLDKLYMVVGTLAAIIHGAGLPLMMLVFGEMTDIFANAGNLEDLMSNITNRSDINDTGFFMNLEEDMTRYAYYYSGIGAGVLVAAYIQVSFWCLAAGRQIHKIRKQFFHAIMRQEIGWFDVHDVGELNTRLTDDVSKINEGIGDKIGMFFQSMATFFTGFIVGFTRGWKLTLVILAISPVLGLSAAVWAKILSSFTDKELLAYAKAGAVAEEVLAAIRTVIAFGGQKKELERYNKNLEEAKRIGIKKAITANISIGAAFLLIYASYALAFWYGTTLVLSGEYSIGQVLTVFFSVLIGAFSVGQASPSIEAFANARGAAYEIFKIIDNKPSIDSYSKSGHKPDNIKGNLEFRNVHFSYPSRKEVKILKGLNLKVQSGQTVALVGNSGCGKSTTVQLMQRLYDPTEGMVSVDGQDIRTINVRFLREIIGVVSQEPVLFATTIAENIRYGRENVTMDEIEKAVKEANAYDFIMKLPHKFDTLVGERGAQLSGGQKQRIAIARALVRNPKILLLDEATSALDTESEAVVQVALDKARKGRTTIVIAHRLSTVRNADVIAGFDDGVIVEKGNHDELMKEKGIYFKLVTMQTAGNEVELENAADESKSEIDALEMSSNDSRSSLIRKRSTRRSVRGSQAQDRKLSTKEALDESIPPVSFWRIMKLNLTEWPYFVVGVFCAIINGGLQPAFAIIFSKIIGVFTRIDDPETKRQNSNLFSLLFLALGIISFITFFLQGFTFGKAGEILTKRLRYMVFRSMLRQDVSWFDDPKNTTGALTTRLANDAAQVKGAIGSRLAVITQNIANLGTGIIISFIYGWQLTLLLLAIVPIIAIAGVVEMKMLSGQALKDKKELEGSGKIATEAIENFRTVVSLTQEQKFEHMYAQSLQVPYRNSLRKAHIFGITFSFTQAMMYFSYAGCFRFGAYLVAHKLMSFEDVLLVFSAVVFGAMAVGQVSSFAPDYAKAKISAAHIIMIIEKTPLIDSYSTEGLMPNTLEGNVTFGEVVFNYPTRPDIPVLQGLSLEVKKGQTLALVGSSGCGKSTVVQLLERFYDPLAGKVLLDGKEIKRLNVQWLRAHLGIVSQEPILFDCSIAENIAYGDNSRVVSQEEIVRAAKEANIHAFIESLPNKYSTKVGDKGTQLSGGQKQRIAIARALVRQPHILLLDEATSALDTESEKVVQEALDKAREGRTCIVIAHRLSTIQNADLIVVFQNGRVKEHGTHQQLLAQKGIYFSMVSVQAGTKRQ
Sequence of CYP2C9 (P11712 whole entry): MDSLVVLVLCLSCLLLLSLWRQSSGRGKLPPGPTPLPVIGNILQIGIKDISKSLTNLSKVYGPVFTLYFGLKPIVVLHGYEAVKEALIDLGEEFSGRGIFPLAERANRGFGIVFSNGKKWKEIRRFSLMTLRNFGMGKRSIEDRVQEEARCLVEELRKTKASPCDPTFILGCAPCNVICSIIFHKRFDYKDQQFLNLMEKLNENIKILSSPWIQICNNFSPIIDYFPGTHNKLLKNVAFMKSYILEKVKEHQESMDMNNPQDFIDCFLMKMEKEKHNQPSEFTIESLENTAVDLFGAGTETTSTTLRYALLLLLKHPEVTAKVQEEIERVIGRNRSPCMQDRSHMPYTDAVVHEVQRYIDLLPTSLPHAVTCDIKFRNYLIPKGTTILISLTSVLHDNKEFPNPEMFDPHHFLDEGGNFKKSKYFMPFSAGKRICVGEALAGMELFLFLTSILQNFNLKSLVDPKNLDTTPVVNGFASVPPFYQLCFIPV
Sequence of CYP3A4 (P08684 whole entry): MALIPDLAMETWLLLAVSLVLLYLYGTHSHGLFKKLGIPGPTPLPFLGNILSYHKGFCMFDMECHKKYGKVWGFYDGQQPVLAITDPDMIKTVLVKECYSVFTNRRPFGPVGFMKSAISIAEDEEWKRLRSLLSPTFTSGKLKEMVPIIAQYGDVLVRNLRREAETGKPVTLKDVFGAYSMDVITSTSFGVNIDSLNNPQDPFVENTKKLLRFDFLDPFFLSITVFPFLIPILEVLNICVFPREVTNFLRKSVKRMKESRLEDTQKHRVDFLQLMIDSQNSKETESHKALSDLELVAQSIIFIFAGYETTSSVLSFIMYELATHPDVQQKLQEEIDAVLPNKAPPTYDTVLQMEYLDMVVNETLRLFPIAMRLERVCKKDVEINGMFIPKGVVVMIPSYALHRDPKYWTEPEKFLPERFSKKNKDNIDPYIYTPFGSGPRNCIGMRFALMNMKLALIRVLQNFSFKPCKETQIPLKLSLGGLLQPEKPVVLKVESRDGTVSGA

In data set [1] (setting [3]), `Cc1ncc2n1-c1ccc(Cl)cc1C(c1ccccc1F)=NC2` [midazolam] showed an AUC of 0.67 ± 0.27 µg·h/mL, a Cmax of 0.91 ± 0.13 µg/mL, a k el of 0.00015 s⁻¹ and an MRT of 64.8 ± 27.6 min. This compound gave a clearance in data set [1] (male, Wistar, rat, plasma, iv, 5 mg/kg, CLtot, rats, midazolam 5 mg/kg iv, control (midazolam alone)) of 83.5 mL/min. The compound also had a half-life in data set [1] (male, Wistar, rat, plasma, iv, 5 mg/kg, midazolam 5 mg/kg iv, control (midazolam alone)) of 58.8 ± 23.4 min. Moreover, in data set [1] (setting [4]), the AUC stood at 1.07 ± 0.07 µg·h/mL, the peak level (Cmax) was 0.95 ± 0.13 µg/mL, the k el was 0.000194 s⁻¹ and the MRT was 88.8 ± 14.4 min. The half-life in data set [1] (male, Wistar, rat, plasma, po, 20 mg/kg, midazolam 20 mg/kg oral, control (midazolam alone)) is 63.6 ± 11.4 min. Further, the Tmax in data set [1] (male, Wistar, rat, plasma, po, 20 mg/kg, Tmax, rats, midazolam 20 mg/kg oral, control (midazolam alone)) came to 22.8 ± 2.4 min. The compound further showed a Vdss in data set [1] (rats, midazolam 5 mg/kg iv, control (midazolam alone)) of 7.44 ± 4.0 L/h. For the same compound, in data set [1] (setting [5]), the CLtot/F worked out at 18.89 ± 1.08 L/h and the Vdss/F was determined as 28.05 ± 4.9 L/h. Besides, in data set [1] (setting [6]), the “Increase of bioavailability of midazolam” value is approximately 40.7%.

With `O=c1oc2c(O)c(O)cc3c(=O)oc4c(O)c(O)cc1c4c23` [Ellagic acid], the IC50 is 23.2 µM on CYP3A4, 42.4 µM against CYP2D6, 12.6 µM against CYP1A2 and 27.1 µM at CYP2C9.

Compound `CCOc1ccc(NC(C)=O)cc1` [phenacetin] registered an AUC(0-t) in data set [2] (male, Wistar, rat, plasma, iv, 5 mg/kg, AUC0-t, rats, phenacetin 5 mg/kg iv, control (phenacetin alone)) of 1.77 ± 0.19 µg·h/mL. Moreover, the clearance in data set [2] (male, Wistar, rat, plasma, iv, 5 mg/kg, CLtot, rats, phenacetin 5 mg/kg iv, control (phenacetin alone)) is 48.3 mL/min. Further, the Cmax came out at 3.65 ± 0.39 µg/mL in data set [2] (male, Wistar, rat, plasma, iv, 5 mg/kg, Cmax, rats, phenacetin 5 mg/kg iv, control (phenacetin alone)) and 3.31 ± 0.67 µg/mL in data set [2] (setting [9]). In addition, the figures for the k el in data set [2] (setting [7]) and in data set [2] (setting [8]) were 0.000728 s⁻¹ and 0.000206 s⁻¹, respectively. Moreover, the MRT in data set [2] (setting [7]) was 21 ± 1.2 min; in data set [2] (setting [8]) it was 79.2 ± 12 min. Besides, the half-life in data set [2] (male, Wistar, rat, plasma, iv, 5 mg/kg, phenacetin 5 mg/kg iv, control (phenacetin alone)) was 16.2 ± 1.2 min; in data set [2] (male, Wistar, rat, plasma, po, 30 mg/kg, phenacetin 30 mg/kg oral, control (phenacetin alone)) it was 58.8 ± 7.2 min. In addition, the Tmax in data set [2] (male, Wistar, rat, plasma, po, 30 mg/kg, Tmax, rats, phenacetin 30 mg/kg oral, control (phenacetin alone)) is 19.8 ± 6 min. Further, the “Enhancement of bioavailability (F) of phenacetin compared with control” value in data set [2] (rats, oral Triphala extract 100 mg/kg) is on record as “approximately 1.2 fold”; in data set [2] (rats, oral Triphala extract 500 mg/kg) it was approximately 1.6 fold. In addition, the “Increase of bioavailability of phenacetin” value in data set [2] (setting [6]) is “about 61.2%”. Moreover, the Vdss was determined as 1.02 ± 0.1 L/h in data set [2] (rats, phenacetin 5 mg/kg iv, control (phenacetin alone)); 1.26 ± 0.2 L/h in data set [2] (rats, phenacetin 5 mg/kg iv, oral Triphala extract 100 mg/kg); 0.93 ± 0.1 L/h in data set [2] (rats, phenacetin 5 mg/kg iv, oral Triphala extract 500 mg/kg). Besides, the CLtot/F in data set [2] (setting [9]) was found to be 7.74 ± 2.63 L/h. Besides, in data set [2] (setting [9]), the Vdss/F turned out to be 9.06 ± 1.9 L/h.

Take `O=C(O)c1cc(O)c(O)c(O)c1` [Gallic acid]: the IC50 at CYP2D6 is 265 µM; against CYP1A2, 89.9 µM; against CYP2C9 it was 338 µM.

In the case of `COC(=O)c1ccccc1-c1c2ccc(=N)cc-2oc2cc(N)ccc12` [Rhodamine 123, rhodamine-123], on P-gp, the Papp A→B at 120 min, 2.5 μg/mL worked out at 640 ± 100 nm/s; the Papp B→A at 120 min, 2.5 μg/mL was found to be 1900 ± 30 nm/s; the efflux ratio at 120 min, 2.5 μg/mL is 3.2 ± 0.5.
